# Test system: 186277-243-T-J2-PDC complex spheroid viability
# Test: Anticancer human tumor 186277-243-T-J2-PDC patient-derived colon adenocarcinoma cell line growth inhibition [GQUAD]
# Details: for IC50: curve of first compound; for viability, T/C: stronger effect = lower value
# How it was run: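 Viability of tumor cells grown as complex spheroids with endothelial and stromal cells, exposed to drug combinations. Top concentration at or near clinical Cmax (else 10 microM), diluted in half-log increments.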
# [1] = second compound 0.0316 µM, first compound 0.0316 µM
# [2] = second compound 0.0316 µM, first compound 0.1 µM
# [3] = second compound 0.0316 µM, first compound 0.316 µM
# [4] = second compound 0.0316 µM, first compound 1 µM
# [5] = second compound 0.0316 µM, first compound 3.16 µM
# [6] = second compound 0.0316 µM, first compound 10 µM
# [7] = second compound 0.1 µM, first compound 0.0316 µM
# [8] = second compound 0.1 µM, first compound 0.1 µM
# [9] = second compound 0.1 µM, first compound 0.316 µM
# [10] = second compound 0.1 µM, first compound 1 µM
# [11] = second compound 0.1 µM, first compound 3.16 µM
# [12] = second compound 0.1 µM, first compound 10 µM
# [13] = second compound 0.316 µM, first compound 0.0316 µM
# [14] = second compound 0.316 µM, first compound 0.1 µM
# [15] = second compound 0.316 µM, first compound 0.316 µM
# [16] = second compound 0.316 µM, first compound 1 µM
# [17] = second compound 0.316 µM, first compound 3.16 µM
# [18] = second compound 0.316 µM, first compound 10 µM
# [19] = second compound 1 µM, first compound 0.0316 µM
# [20] = second compound 1 µM, first compound 0.1 µM
# [21] = second compound 1 µM, first compound 0.316 µM
# [22] = second compound 1 µM, first compound 1 µM
# [23] = second compound 1 µM, first compound 3.16 µM
# [24] = second compound 1 µM, first compound 10 µM
# [25] = second compound 3.16 µM, first compound 0.0316 µM
# [26] = second compound 3.16 µM, first compound 0.1 µM
# [27] = second compound 3.16 µM, first compound 0.316 µM
# [28] = second compound 3.16 µM, first compound 1 µM
# [29] = second compound 3.16 µM, first compound 3.16 µM
# [30] = second compound 3.16 µM, first compound 10 µM
# [31] = second compound 10 µM, first compound 0.0316 µM
# [32] = second compound 10 µM, first compound 0.1 µM
# [33] = second compound 10 µM, first compound 0.316 µM
# [34] = second compound 10 µM, first compound 1 µM
# [35] = second compound 10 µM, first compound 3.16 µM
# [36] = second compound 10 µM, first compound 10 µM
# 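Throughout, for viability, T/C: 100% = DMSO vehicle control viability.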
smiles,measurement,setting,value
C#Cc1c(F)ccc2cc(O)cc(-c3ncc4c(N5CC6CCC(C5)N6)nc(OCC56CCCN5CC(F)C6)nc4c3F)c12 (stereo unspecified) + Cc1[nH]c2ccc(F)cc2c1-c1nc2c3cccnc3c3ncccc3c2[nH]1,IC50,second compound 0.0316 µM,74.3 nM
same,IC50,second compound 0.1 µM,85.4 nM
same,IC50,second compound 0.316 µM,64.1 nM
same,IC50,second compound 1 µM,61.3 nM
same,IC50,second compound 3.16 µM,51.7 nM
same,IC50,second compound 10 µM,< 31.6 nM
same,"viability, T/C",[1],94.1%
same,"viability, T/C",[2],34.5%
same,"viability, T/C",[3],14.3%
same,"viability, T/C",[4],7.64%
same,"viability, T/C",[5],7.24%
same,"viability, T/C",[6],5.55%
same,"viability, T/C",[7],106%
same,"viability, T/C",[8],41.1%
same,"viability, T/C",[9],14.2%
same,"viability, T/C",[10],8.6%
same,"viability, T/C",[11],7.78%
same,"viability, T/C",[12],5.66%
same,"viability, T/C",[13],78.1%
same,"viability, T/C",[14],30.7%
same,"viability, T/C",[15],18.1%
same,"viability, T/C",[16],7.67%
same,"viability, T/C",[17],7.43%
same,"viability, T/C",[18],3.69%
same,"viability, T/C",[19],68.6%
same,"viability, T/C",[20],36%
same,"viability, T/C",[21],17.7%
same,"viability, T/C",[22],7.93%
same,"viability, T/C",[23],6.21%
same,"viability, T/C",[24],5.18%
same,"viability, T/C",[25],56%
same,"viability, T/C",[26],42.3%
same,"viability, T/C",[27],19.2%
same,"viability, T/C",[28],10.7%
same,"viability, T/C",[29],5.86%
same,"viability, T/C",[30],3.99%
same,"viability, T/C",[31],47.4%
same,"viability, T/C",[32],38.2%
same,"viability, T/C",[33],16.8%
same,"viability, T/C",[34],7.64%
same,"viability, T/C",[35],7.32%
same,"viability, T/C",[36],2.6%
CC(=O)O[C@H]1C(=O)[C@@]2(C)[C@H]([C@H](OC(=O)c3ccccc3)[C@]3(O)C[C@H](OC(=O)[C@H](O)[C@@H](NC(=O)c4ccccc4)c4ccccc4)C(C)=C1C3(C)C)[C@]1(OC(C)=O)CO[C@@H]1C[C@@H]2O + Cc1[nH]c2ccc(F)cc2c1-c1nc2c3cccnc3c3ncccc3c2[nH]1,IC50,second compound 0.0316 µM,< 31.6 nM
same,IC50,second compound 0.1 µM,< 31.6 nM
same,IC50,second compound 0.316 µM,< 31.6 nM
same,IC50,second compound 1 µM,< 31.6 nM
same,IC50,second compound 3.16 µM,< 31.6 nM
same,IC50,second compound 10 µM,< 31.6 nM
same,"viability, T/C",[1],15.7%
same,"viability, T/C",[2],4.95%
same,"viability, T/C",[3],6.22%
same,"viability, T/C",[4],4.92%
same,"viability, T/C",[5],4.75%
same,"viability, T/C",[6],4.49%
same,"viability, T/C",[7],15%
same,"viability, T/C",[8],5.55%
same,"viability, T/C",[9],4.93%
same,"viability, T/C",[10],4.7%
same,"viability, T/C",[11],4.6%
same,"viability, T/C",[12],4.6%
same,"viability, T/C",[13],15.1%
same,"viability, T/C",[14],5.62%
same,"viability, T/C",[15],4.72%
same,"viability, T/C",[16],4.93%
same,"viability, T/C",[17],5.02%
same,"viability, T/C",[18],4.65%
same,"viability, T/C",[19],12%
same,"viability, T/C",[20],5.43%
same,"viability, T/C",[21],4.8%
same,"viability, T/C",[22],4.59%
same,"viability, T/C",[23],4.91%
same,"viability, T/C",[24],4.25%
same,"viability, T/C",[25],11.6%
same,"viability, T/C",[26],5.28%
same,"viability, T/C",[27],4.81%
same,"viability, T/C",[28],3.9%
same,"viability, T/C",[29],5.02%
same,"viability, T/C",[30],4.07%
same,"viability, T/C",[31],12.4%
same,"viability, T/C",[32],5.2%
same,"viability, T/C",[33],3.75%
same,"viability, T/C",[34],3.85%
same,"viability, T/C",[35],4.46%
same,"viability, T/C",[36],3.46%
CC(C)(O)C1CCC(Nc2ccc3ncc(-c4cccc(C(F)(F)F)c4)n3n2)CC1 (stereo unspecified) + Cc1[nH]c2ccc(F)cc2c1-c1nc2c3cccnc3c3ncccc3c2[nH]1,IC50,second compound 0.0316 µM,2550 nM
same,IC50,second compound 0.1 µM,3840 nM
same,IC50,second compound 0.316 µM,2870 nM
same,IC50,second compound 1 µM,2750 nM
same,IC50,second compound 3.16 µM,2450 nM
same,IC50,second compound 10 µM,2190 nM
same,"viability, T/C",[1],105%
same,"viability, T/C",[2],87.1%
same,"viability, T/C",[3],86.5%
same,"viability, T/C",[4],80.9%
same,"viability, T/C",[5],42.2%
same,"viability, T/C",[6],29.2%
same,"viability, T/C",[7],100%
same,"viability, T/C",[8],103%
same,"viability, T/C",[9],78.8%
same,"viability, T/C",[10],83.3%
same,"viability, T/C",[11],49.8%
same,"viability, T/C",[12],32.1%
same,"viability, T/C",[13],90%
same,"viability, T/C",[14],110%
same,"viability, T/C",[15],97.3%
same,"viability, T/C",[16],91.8%
same,"viability, T/C",[17],46.1%
same,"viability, T/C",[18],32.6%
same,"viability, T/C",[19],98.8%
same,"viability, T/C",[20],97%
same,"viability, T/C",[21],90.5%
same,"viability, T/C",[22],107%
same,"viability, T/C",[23],41.7%
same,"viability, T/C",[24],45%
same,"viability, T/C",[25],95.6%
same,"viability, T/C",[26],115%
same,"viability, T/C",[27],107%
same,"viability, T/C",[28],90.9%
same,"viability, T/C",[29],37.9%
same,"viability, T/C",[30],38.6%
same,"viability, T/C",[31],91%
same,"viability, T/C",[32],111%
same,"viability, T/C",[33],113%
same,"viability, T/C",[34],87.4%
same,"viability, T/C",[35],29.4%
same,"viability, T/C",[36],35.3%
